Data taken from publication PMC5046105, “Improved affinity at the cost of decreased specificity: a recurring theme in PDZ-peptide interactions” (Scientific Reports, 2016).
Ends that are not written are not given here.

Experiments:
[1] = tested on: PDZØ9; test: Proteomic peptide-phage display (ProP-PD) selection, PDZØ9 as bait; parameters: species or system human; conditions: number of this peptide among 76 sequenced binding clones after round three of ProP-PD selection
Method: (§1) The peptide-phage library used in the selections consisted of 50,549 heptapeptides representing the C-terminal sequences of the human proteome, fused to the C-terminus of the major coat protein pVIII of the M13 phage. This library was developed and successfully used for the rapid isolation of potential cellular PDZ domain targets, as previously reported.
(§2) Individual binding clones were isolated and sequenced (see Table 1).
(§3) Peptide-phage selections against PDZØ9 and pWT PDZ2 were performed with a previously developed library of 50549 heptapeptides, representing all of the C-terminal sequences in the human proteome. Peptides are fused to the C-terminus of the gene-8 major coat protein of M13 phage and hereby referred to as the naïve peptide library. Each of the two selections was performed twice. First, the two lipoyl-PDZ proteins were used to coat 96-well Maxisorp microtiter plates (NUNC) by incubation overnight at 4 °C (15 μg of protein in 100 μl of PBS per well). For the first round of selection, two wells were used for each PDZ, whereas a single well was used for the following selections. In parallel, wells were coated with lipoyl domain alone in order to remove nonspecific binders by a preselection step. The following day, wells were blocked with 200 μl of 0.5% BSA in PBS for 1 h at 4 °C, and washed four times with PT buffer [PBS, 0.05% Tween-20] before addition of phages. Phage pools representing the naïve peptide library were diluted 50-fold in PBS, precipitated with PEG/NaCl [4% PEG-8000 and 0.5 M NaCl] by incubation for 10 min on ice, pelleted by centrifugation (10 min, 16000 × g), and resuspended in PBS. For each selection round, 100 μl of resuspended phage was added to the preselection wells and incubated for 1 h at 4 °C before transfer to the target wells in which they were incubated for 2 h at 4 °C. The wells were washed five times with PT buffer and bound phages were eluted by direct infection of bacteria through the addition of 100 μl log-phase Escherichia coli Omnimax (Invitrogen) in 2TY, followed by 30 min incubation at 37 °C with shaking. Phage production was initiated by the addition of M13K07 helper phage (New England Biolabs) to a final concentration of 10^10 phage/ml and continued incubation at 37 °C for 45 min. The cultures were then transferred to 10 ml 2TY containing 100 μg/ml carbenicillin, 30 μg/ml kanamycin, and 1 mM IPTG, and shaken overnight at 37 °C. The bacteria were pelleted by centrifugation (10 min, 5300 × g), and the phage-containing supernatant was transferred to a new tube in which phages were precipitated with PEG/NaCl as described above, pelleted by centrifugation (15 min, 5300 × g), and resuspended in 1 ml of PBS. The resuspended phages, hereby-denoted Øout, were then used for the next round of selection. A total of five rounds were carried out and the enrichment of phages specific for the target was monitored by analysing aliquots of Øout in a phage ELISA performed as described below. For each of the five rounds of the respective selection, 10 μg of target protein and lipoyl domain were individually coated in parallel wells using the same type of plate, procedure, and blocking the following day, as described for the selection rounds above. When the 200 μl of blocking solution had been aspirated, 100 μl of resuspended phage was added and incubated for 30 min at 4 °C.

[2] = tested on: pWT PDZ2; test: Proteomic peptide-phage display (ProP-PD) selection, pWT PDZ2 as bait; parameters: species or system human; conditions: number of this peptide among 71 sequenced binding clones after round three of ProP-PD selection
Method: as §1, §2, §3

[3] = biological target: pWT PDZ2 L391F (human) (UniProt Q12959); test: ITC; PGKETQL peptide titrated into pWT PDZ2 L391F; iTC200, 10 °C, 50 mM potassium phosphate, pH 7.5; 1:1 model; duplicate titrations, average parameters
[4] = biological target: pWT PDZ2 K392M (human) (UniProt Q12959); test: stopped-flow spectroscopy
[5] = biological target: pWT PDZ2 L391F (human) (UniProt Q12959); test: stopped-flow spectroscopy
[6] = biological target: PDZØ9, engineered variant (L391F/K392M) of pWT SAP97 PDZ2 (human) (UniProt Q12959); test: stopped-flow spectroscopy
[7] = biological target: Pseudo wild type SAP97 PDZ2 (second PDZ domain of synapse associated protein 97, I342W/C378A) (human) (UniProt Q12959); test: stopped-flow spectroscopy
Chain of Pseudo wild type SAP97 PDZ2 (second PDZ domain of synapse associated protein 97, I342W/C378A) (human) (Q12959 311-407, stated change not applied): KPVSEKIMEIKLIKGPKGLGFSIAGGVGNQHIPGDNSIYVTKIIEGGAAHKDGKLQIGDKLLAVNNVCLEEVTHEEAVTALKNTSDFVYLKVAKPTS

Chain of pWT PDZ2 L391F (human) (Q12959 311-407, stated change not applied): as the sequence (Q12959 311-407, stated change not applied) above
Chain of PDZØ9, engineered variant (L391F/K392M) of pWT SAP97 PDZ2 (human) (Q12959 311-407, stated change not applied): as the sequence (Q12959 311-407, stated change not applied) above
Chain of pWT PDZ2 K392M (human) (Q12959 311-407, stated change not applied): as the sequence (Q12959 311-407, stated change not applied) above

| Molecule | Prevalence, PDZØ9 (76) [1] | Prevalence, pWT PDZ2 (71) [2] | also measured |
| --- | --- | --- | --- |
| AGKTTIL | 1 | – | – |
| AGRETTV | – | 1 | – |
| IKTETTV | 1 | 7 | – |
| KGTETTL | 1 | – | – |
| KIKETTV | 1 | 3 | – |
| RAISTDV | 2 | – | – |
| WKHETTV | 4 | 5 | – |
| WKNETTV | 1 | 1 | – |
| WKSETTV | 1 | 1 | – |
| YKKETPL | 1 | – | – |
| Ac-PGKETQL [PGKETQL peptide (C-terminus of SO1C1_HUMAN)] | – | – | Kd [3]: 310 nM; stoichiometry N [3]: 0.76; koff [4]: 48 s⁻¹; kon [4]: 1.8e+07 M⁻¹ s⁻¹; koff [5]: 5 s⁻¹; kon [5]: 2e+07 M⁻¹ s⁻¹; koff [6]: 3.9 s⁻¹; kon [6]: 1.6e+07 M⁻¹ s⁻¹; koff [7]: 51 s⁻¹; kon [7]: 1.8e+07 M⁻¹ s⁻¹ |
